We go through 10 compounds from patent publication US6809110B2 (Hoffmann-La Roche Inc., priority 2002, dated 2004).

The target of experiment [1] is T1, PPARγ (Mus musculus, UniProt P37238).
T1 sequence (P37238 204-505): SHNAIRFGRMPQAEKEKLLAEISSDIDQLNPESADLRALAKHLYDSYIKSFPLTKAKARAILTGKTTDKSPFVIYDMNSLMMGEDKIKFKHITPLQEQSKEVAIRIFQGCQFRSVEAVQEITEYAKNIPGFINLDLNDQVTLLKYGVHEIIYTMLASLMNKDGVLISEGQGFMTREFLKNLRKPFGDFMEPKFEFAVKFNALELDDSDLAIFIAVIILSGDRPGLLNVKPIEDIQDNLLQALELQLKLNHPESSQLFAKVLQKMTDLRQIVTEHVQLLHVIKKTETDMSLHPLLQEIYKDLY
Description: PPARγ radioligand binding assay (SPA, GST-PPARγ-LBD fusion protein). Further details: PPARγ (aa 174 to 476). As to conditions: SPA beads. An excerpt:
(§1) Full-length cDNA clones for human PPARα and mouse PPARγ were obtained by RT-PCR from human adipose and mouse liver cRNA, respectively, cloned into plasmid vectors and verified by DNA sequencing. (With respect to cloning of PPARα cDNA, see Sher, T. et al. “cDNA doning, chromosomel mapping and functional characterization of the human peroxisome proliferator activated receptor”, Biochemistry 32(21) 5598-5604 (1993); with respect to cloning of PPARγ2 cDNA, see Tontonoy P., et al. “mPPAR gamma 2: tissue-specific regulator of an adipocyte enhancer”, Genes Dev. 8(10) 1224-34 (1994).) Bacterial and mammalian expression vectors were constructed to produce glutathione-s-transferase (GST) and Gal4 DNA binding domain proteins fused to the ligand binding domains (LBD) of PPARγ (aa 174 to 476) and PPARα (aa 167 to 469). To accomplish this, the portions of the cloned sequences encoding the LBDs were amplified from the full-length clones by PCR and then subcloned into the plasmid vectors. Final clones were verified by DNA sequence analysis.
(§2) Induction, expression, and purification of GST-LBD fusion proteins were performed in E. coli strain BL21(pLysS) cells by standard methods (Ref: Current Protocols in Molecular Biology, Wiley Press, edited by Ausubel et al.).
(§3) PPARγ receptor binding was assayed in TKE50 (50 mM Tris-HCl, pH 8, 50 mM KCl, 2 mM EDTA, 0.1 mg/ml fatty acid-free BSA and 10 mM DTT). For each 96 well reaction an 140 ng equivalent of GST-PPARγ-LBD fusion protein was bound to 10 ug SPA beads (PharmaciaArnersham) in a final volume of 50 ul by shaking. The resulting slurry was incubated for 1 h at RT and centrifuged for 2 min at 1300 g. The supernatant containing unbound protein was removed and the semidry pellet containing the recptor-coated beads was resolved in 50 ul of TKE. For radioligand binding e.g. 10000 dpm 2(S)-(2-benzoyl-phenylamino)-3-{4-[1,1-ditritio-2-(5-methyl-2-phenyl-oxazol-4-yl)-ethoxy]-phenyl}-propionic acid in 50 ul were added, the reaction incubated at RT for 1 h and scintillation proximity counting performed. All binding assays were performed in 96 well plates and the amount of bound ligand measured on a Packard TopCount using OptiPlates (Packard). Nonspecific binding was determined in the presence of 10^−4 M unlabelled compound. Dose response curves were done in triplicates within a range of concentration from 10^−10 M to 10^−4 M.

For experiment [2], the target named is T2, PPARα (Homo sapiens, UniProt Q07869).
T2 sequence (Q07869 167-468 limits assumed): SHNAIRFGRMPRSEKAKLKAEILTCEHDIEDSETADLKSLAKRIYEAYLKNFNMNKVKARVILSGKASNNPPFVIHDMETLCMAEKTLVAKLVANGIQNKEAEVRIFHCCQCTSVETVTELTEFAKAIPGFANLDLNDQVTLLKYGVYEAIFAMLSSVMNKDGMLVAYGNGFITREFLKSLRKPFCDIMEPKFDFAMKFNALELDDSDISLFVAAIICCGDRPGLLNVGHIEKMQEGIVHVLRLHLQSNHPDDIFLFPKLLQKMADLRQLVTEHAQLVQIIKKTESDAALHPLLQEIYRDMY
Description: Luciferase transcriptional reporter gene assay, BHK21 cells transfected with pFA-PPARα-LBD. Further details: PPARα (aa 167 to 469). The class given is cell-based. As to conditions: 24 hours incubation. The method, then:
(§4) Full-length cDNA clones for human PPARα and mouse PPARγ were obtained by RT-PCR from human adipose and mouse liver cRNA, respectively, cloned into plasmid vectors and verified by DNA sequencing. […] To accomplish this, the portions of the cloned sequences encoding the LBDs were amplified from the full-length clones by PCR and then subcloned into the plasmid vectors. Final clones were verified by DNA sequence analysis.
(§5) Baby hamster kidney cells (BHK21 ATCC CCL10) were grown in DMEM medium containing 10% FBS at 37° C. in a 95%02:5%CO2 atmosphere. Cells were seeded in 6 well plates at a density of 10^5 Cells/well and then batch-transfected with either the pPA-PPARγ-LBD or pFA-PPARα-LBD expression plasmids plus a reporter plasmid and an expression plasmid encoding the secretable form of alkaline phosphatase (SEAP) as a normalization control. […] Six hours following transfection, the cells were harvested by trypsinization and seeded in 96 well plates at a density of 10^4 cells/well. After 24 hours to allow attachment of cells, the medium was removed and replaced with 100 ul of phenol red-free medium containing the test substances or control ligands (final DMSO concentration: 0.1%). Following incubation of the cells for 24 hours with substances, 50 ul of the supernatant was recovered and analyzed for SEAP activity (Roche Molecular Biochemicals). The remainder of the supernatant was discarded, 50 ul PBS was added per well followed by one volume of Luciferase Constant-Light Reagent (Roche Molecular Biochemicals) to lyse the cells and initiate the luciferase reaction. Luminescence for both SEAP and luciferase was measured in a Packard TopCount. Luciferase activity was normalized to the SEAP control and transcriptional activation in the presence of a test substance was expressed as fold-activation over cells incubated in the absence of the substance. EC50 values were calculated using the XLfit program (ID Business Solutions Ltd. UK).
On the technique in general: In a reporter assay the amount or activity of a reporter protein is the signal.

For experiment [3], the target named is T2, PPARα. Briefly: PPARα radioligand binding assay (SPA, GST-PPARα-LBD fusion protein). Set-up: PPARγ (aa 174 to 476) and PPARα (aa 167 to 469); made in house; host or cells: E. coli BL21(pLysS). As to conditions: SPA beads.
Text: as §4, §2
as §3, with “PPARα receptor” for “PPARγ receptor”, “reaction a” for “reaction an”, “of GST-PPARα-LBD” for “of GST-PPARγ-LBD”, “beads (PharmaciaAmersham)” for “beads (PharmaciaArnersham)”, “dpm of” for “dpm”, “2(S)-(2-benzoyl-phenylamino)-3-{4-[1,1-ditritio-2-(5-methyl-2-phenyl-oxazol-4-yl)-ethoxy]-phenyl}-propionic acid or 2,3-ditritio-2(S)-methoxy-3-(4-(2-(5-methyl-2-phenyl-oxazol-4-yl)-ethoxy]-benzo[b]thiophen-7-yl}-propionic” for “2(S)-(2-benzoyl-phenylamino)-3-{4-[1,1-ditritio-2-(5-methyl-2-phenyl-oxazol-4-yl)-ethoxy]-phenyl}-propionic”

The target of experiment [4] is T1, PPARγ. Briefly: Luciferase transcriptional reporter gene assay, BHK21 cells transfected with PPARγ-LBD expression plasmid. Type of experiment: cell-based. Set-up: PPARγ (aa 174 to 476) and PPARα (aa 167 to 469); expressed in transfected cells; host or cells: BHK21 (ATCC CCL10). As to conditions: 24 hours incubation.
Text: as §1, §5

Experiment [5] deals with T1, PPARγ. Description: PPARγ radioligand binding assay (SPA, GST-PPARγ-LBD fusion protein). As to conditions: SPA beads. An excerpt:
Full-length cDNA clones for human PPARα and mouse PPARγ were obtained by RT-PCR from human adipose and mouse liver cRNA, respectively, cloned into plasmid vectors and verified by DNA sequencing. (With respect to cloning of PPARα cDNA, see Sher, T. et al. “cDNA doning, chromosomel mapping and functional characterization of the human peroxisome proliferator activated receptor”, Biochemistry 32(21) 5598-5604 (1993); with respect to cloning of PPARγ2 cDNA, see Tontonoy P., et al. “mPPAR gamma 2: tissue-specific regulator of an adipocyte enhancer”, Genes Dev. 8(10) 1224-34 (1994).) Bacterial and mammalian expression vectors were constructed to produce glutathione-s-transferase (GST) and Gal4 DNA binding domain proteins fused to the ligand binding domains (LBD) of PPARγ (aa 174 to 476) and PPARα (aa 167 to 469). To accomplish this, the portions of the cloned sequences encoding the LBDs were amplified from the full-length clones by PCR and then subcloned into the plasmid vectors. Final clones were verified by DNA sequence analysis. […]
PPARγ receptor binding was assayed in TKE50 (50 mM Tris-HCl, pH 8, 50 mM KCl, 2 mM EDTA, 0.1 mg/ml fatty acid-free BSA and 10 mM DTT). […] All binding assays were performed in 96 well plates and the amount of bound ligand measured on a Packard TopCount using OptiPlates (Packard). Nonspecific binding was determined in the presence of 10^−4 M unlabelled compound. […]

The target in experiment [6] is T2, PPARα. Briefly: Luciferase transcriptional reporter gene assay, BHK21 cells transfected with pFA-PPARα-LBD. The class given is cell-based. The conditions noted are these: 24 hours incubation. Here is the method: as §4
Baby hamster kidney cells (BHK21 ATCC CCL10) were grown in DMEM medium containing 10% FBS at 37° C. in a 95%02:5%CO2 atmosphere. Cells were seeded in 6 well plates at a density of 10^5 Cells/well and then batch-transfected with either the pPA-PPARγ-LBD or pFA-PPARα-LBD expression plasmids plus a reporter plasmid and an expression plasmid encoding the secretable form of alkaline phosphatase (SEAP) as a normalization control. […] Following incubation of the cells for 24 hours with substances, 50 ul of the supernatant was recovered and analyzed for SEAP activity (Roche Molecular Biochemicals). […] Luminescence for both SEAP and luciferase was measured in a Packard TopCount. Luciferase activity was normalized to the SEAP control and transcriptional activation in the presence of a test substance was expressed as fold-activation over cells incubated in the absence of the substance. EC50 values were calculated using the XLfit program (ID Business Solutions Ltd. UK).

On to `CCO[C@@H](Cc1ccc(OCc2csc(-c3ccc(Cl)cc3)n2)cc1C)C(=O)O` [Example 20, (2S)-3-{4-[2-(4-Chloro-phenyl)-thiazol-4-ylmethoxy]-2-methyl-phenyl}-2-ethoxy-propionic acid], for which the IC50 in experiment [1] came to 738 nM; in experiment [3] it was 24 nM. Besides, the concentration giving a half-maximal response (EC50) in experiment [2] was determined as 27 nM; in experiment [4] it was 209 nM.
`CCOC(Cc1ccc(OCCCc2csc(-c3ccc(C(C)C)cc3)n2)c(F)c1)C(=O)O` (racemic) [Example 43, [rac]-2-Ethoxy-3-(3-fluoro-4-{3-[2-(4-isopropyl-phenyl)-thiazol-4-yl]-propoxy}-phenyl)-propionic acid]: the IC50 in experiment [1] worked out at 52 nM; in experiment [3] it was 50 nM. Also, the EC50 is 2110 nM in experiment [2] and 543 nM in experiment [4].
As for `CCOC(Cc1ccc(OCCc2nc(-c3ccc(OC(F)(F)F)cc3)sc2C)c(C)c1)C(=O)O` (racemic) [Example 60, [rac]-2-ethoxy-3-(3-methyl-4-{2-[5-methyl-2-(4-trifluoromethoxy-phenyl)-thiazol-4-yl]-ethoxy}-phenyl)-propionic acid], the results for the IC50 in experiment [1] and in experiment [3] were 42 nM and 37 nM, respectively. Besides, the EC50 in experiment [2] was found to be 748 nM; in experiment [4] it was 411 nM.
As to `CCOC(Cc1ccc(OCCc2nc(-c3cc(OC)cc(OC)c3)sc2C)c(OC)c1)C(=O)O` (racemic) [Example 64], the figures for the 50% inhibitory concentration (IC50) in experiment [5] and in experiment [3] were 84 nM and 95 nM, respectively. Also, the EC50 in experiment [6] is 513 nM; in experiment [4] it was 281 nM.
For the compound `CCOC(Cc1ccc(OCCc2csc(-c3ccc(C(F)(F)F)cc3)n2)c(F)c1)C(=O)O` (racemic) [Example 25, [rac]-2-Ethoxy-3-(3-fluoro-4-{2-[2-(4-trifluoromethyl-phenyl)-thiazol-4-yl]-ethoxy}-phenyl)-propionic acid], the half-inhibitory concentration (IC50) came out at 535 nM in experiment [1] and 370 nM in experiment [3]. The figures for the EC50 in experiment [2] and in experiment [4] were 116 nM and 508 nM, respectively.
`CCOC(Cc1ccc(OCc2csc(-c3ccc(Cl)cc3)n2)c2ccoc12)C(=O)O` (racemic) [Example 95]: the half-inhibitory concentration (IC50) in experiment [5] was determined as 925 nM; in experiment [3], 114 nM. Also, the EC50 in experiment [6] turned out to be 54 nM; in experiment [4] it was 1580 nM.
With `CCOC(Cc1ccc(OCc2csc(-c3ccc(C(C)C)cc3)n2)c(C)c1)C(=O)O` (racemic) [Example 5, [rac]-2-Ethoxy-3-{4-[2-(4-isopropyl-phenyl)-thiazol-4-ylmethoxy]-3-methyl-phenyl}-propionic acid], the IC50 in experiment [1] came to 96 nM; in experiment [3], 133 nM. Besides, the EC50 in experiment [2] turned out to be 400 nM; in experiment [4], 389 nM.
With `CCOC(Cc1ccc(OCCCc2nc(-c3ccc(C(C)(C)C)cc3)sc2C)cc1C)C(=O)O` (racemic) [Example 102, [rac]-3-(4-{3-[2-(4-tert-Butyl-phenyl)-5-methyl-thiazol-4-yl]-propoxy}-2-methyl-phenyl)-2-ethoxy-propionic acid], the IC50 in experiment [1] came out at 20 nM; in experiment [3], 15 nM. In addition, the values for the EC50 in experiment [2] and in experiment [4] were 215 nM and 42 nM, respectively.
Take `CCO[C@@H](Cc1ccc(OCc2csc(-c3cccc(Cl)c3)n2)cc1C)C(=O)O` [Example 19, (2S)-3-{4-[2-(3-Chloro-phenyl)-thiazol-4-ylmethoxy]-2-methyl-phenyl}-2-ethoxy-propionic acid]: the results for the IC50 in experiment [1] and in experiment [3] were 179 nM and 89 nM, respectively. The figures for the EC50 in experiment [2] and in experiment [4] were 71 nM and 60 nM, respectively.
For the compound `CCOC(Cc1ccc(OCc2csc(-c3ccc(Cl)cc3)n2)cc1C)C(=O)O` (racemic) [Example 14, [rac]-3-{4-[2-(4-chloro-phenyl)-thiazol-4-ylmethoxy]-2-methyl-phenyl}-2-ethoxy-propionic acid], the IC50 is 457 nM in experiment [1] and 109 nM in experiment [3]. For the same compound, the EC50 in experiment [2] was determined as 77 nM; in experiment [4], 608 nM.

The IC50 is the concentration at which inhibition is half-maximal. The low end stands for greater potency in that assay, the high end for weaker potency in that assay. Broadly, the EC50 is the concentration at which the effect is half-maximal. Higher therefore signals weaker potency.
